Tests used:
[1] = Methylone PTSD case series with long-term follow-up (CGI-I, safety); format: in vivo, human
Description: The patients were not given structured psychotherapy in conjunction with methylone treatment, which differs from recent studies of MDMA that emphasize the importance of a manualized psychedelic-assisted psychotherapy model.
No protected health information was disclosed, and no consent was obtained from patients for use of their archival data. Case narratives were systematically compiled from data collected as part of routine clinical work. Diagnoses were confirmed by an experienced clinician using semi-structured interviews. Baseline symptom severity was evaluated using the Clinical Global Impressions Scale-Severity (CGI-S). Symptom improvement was evaluated using the Clinical Global Impressions Scale-Improvement (CGI-I) following dosing. […] Because these case narratives were examined retrospectively from routine clinical care records, and not gathered prospectively in a research study, more specific validated rating scales for assessing PTSD symptoms were not available. Additionally, follow-up varied, with the length of follow-up ranging from one week (Case 2) to 15 years (Case 16).
Dosing summary: Methylone was administered orally. Other medications were not changed during methylone treatment. […] In several cases, treatment was continued, and, in some cases, the dose was further escalated in later sessions (see Table 5). Booster doses were included for 19 patients in one or more of the sessions. Starting doses were between 100 and 270 mg, and these as well as booster doses were selected based on clinical judgement.

[2] = target: NET (Rattus norvegicus, UniProt Q63380); assay: [3H]NE uptake inhibition in rat brain synaptosomes; details: read-out: Reuptake inhibition: IC50; rat brain synaptosomes
[3] = Excipient compatibility study (assay, appearance, degradation products); format: physicochemical
Procedure: Analyses were conducted at t=0, 2, 4 and 8 weeks for appearance, assay, and related substances for samples stored in closed vials at 25° C./60% RH and 40° C./75% RH.
Excipient Compatibility Sample Mixtures: The excipients and API were dispensed individually by weight into 20 mL clear borosilicate (type I) glass vials to fill the appropriate weights as listed in Table 12. Table 12 lists mixtures of API with varied excipients and a stand-alone control sample of API alone. Each excipient mixture sample preparation was conducted using a clean spatula to mix the vial ingredients for 30-60 seconds. Each vial was properly labeled with the description and storage conditions. One vial was used for testing at the initial (t=0) time point. Three vials, closed, were placed at each storage condition to allow sampling at each time point and one vial, closed, was placed at each storage condition for overage.

[4] = target: SERT (Rattus norvegicus, UniProt P31652); assay: [3H]5-HT uptake inhibition in rat brain synaptosomes; details: read-out: Reuptake inhibition: IC50; rat brain synaptosomes
[5] = target: serotonin transporter (SERT) (Rattus norvegicus, UniProt P31652); assay: [3H]5HT uptake saturation in rat brain synaptosomes with or without methylone; format: biochemical; details: Kd right shifted, no decrease in Bmax
[6] = test system: Sprague Dawley rat neurons; assay: Neurite outgrowth in E18 cortical cultures; format: cell-based; details: 10 μM, applied day 1, fixed day 3-4
Procedure: Neuroplasticity is defined as changes in the structure, connections and function of neurons, including neurite outgrowth. […] E18 cortical cultures were harvested and plated on culture dishes. […] Neurite length was measured using ImageJ software.

[7] = Reserpine-induced fibromyalgia model, vonFrey test; format: in vivo, rat; details: 15 mg/kg IP, 30 min before vonFrey test, day 4
Procedure: In this Example, male Sprague Dawley rats are tested in a behavioral model of FMA based on the protocol from Nakagura et al. (2009) Pain 146:26. This model uses three daily doses of reserpine (1 mg/kg, SC) or 0.5% acetic acid vehicle to reduce pain thresholds (i.e., increase pain perception) in the Von Frey Test (vFT, procedure outlined below).
Von Frey Test (vFT) procedure: Increasing pain thresholds in this test are consistent with a reduction in pain perception. Prior to the start of dosing, rats are tested for their baseline mechanical pain threshold. For von Frey measurements, animals are placed into wire bottom cubicles with opaque Plexiglas walls, allowing access to the underside of their paws. Animals are habituated to this environment for at least 30 minutes before the start of the von Frey filament application. Static allodynia is measured using Semmes-Weinstein von Frey filaments (Stoelting, Wood Dale, IL). Mechanical allodynia is tested by touching the plantar surface of the animals' left and right hind paws with von Frey filaments which deliver a calibrated amount of force. Each von Frey filament is presented perpendicularly to the plantar surface for approximately 6 seconds of constant application in either ascending or descending strength in a modified up-and-down method (Chaplan et al. (1994) J Neurosci. Meth. 53:55). Stimulation is presented at intervals of several seconds, allowing for apparent resolution of any behavioral responses to previous stimuli. A positive response is noted if the paw is sharply withdrawn. Flinching immediately upon removal of the hair is also considered a positive response. Ambulation is considered an ambiguous response, and, in such cases, the stimulus is repeated.
VonFrey measurements: Animals were placed into wire bottom cubicles with opaque Plexiglas walls, allowing access to the underside of their paws. […] Static allodynia was measured using Semmes-Weinstein von Frey filaments (Stoelting, Wood Dale, IL). […] The average hindpaw thresholds were determined 60-min post-injection. […]

[8] = target: T1, 5HT2C receptor (Homo sapiens, UniProt P28335); assay: GPCRmax screen, agonist mode, 5HT2C; format: cell-based; details: 1 or 10 mM
T1 construct: host or cells: PathHunter cell lines

[9] = target: 168 GPCRs (Homo sapiens, UniProt Q16602); assay: β-arrestin GPCR screen (PathHunter / GPCRmax), agonist mode; format: cell-based; parameters: host or cells: PathHunter cell lines; details: CALCRL-RAMP3, 1 uM
Procedure: For agonist determination, cells were incubated with sample to induce response. […] Vehicle concentration was 1%.

Sequence of SERT (P31652 whole entry): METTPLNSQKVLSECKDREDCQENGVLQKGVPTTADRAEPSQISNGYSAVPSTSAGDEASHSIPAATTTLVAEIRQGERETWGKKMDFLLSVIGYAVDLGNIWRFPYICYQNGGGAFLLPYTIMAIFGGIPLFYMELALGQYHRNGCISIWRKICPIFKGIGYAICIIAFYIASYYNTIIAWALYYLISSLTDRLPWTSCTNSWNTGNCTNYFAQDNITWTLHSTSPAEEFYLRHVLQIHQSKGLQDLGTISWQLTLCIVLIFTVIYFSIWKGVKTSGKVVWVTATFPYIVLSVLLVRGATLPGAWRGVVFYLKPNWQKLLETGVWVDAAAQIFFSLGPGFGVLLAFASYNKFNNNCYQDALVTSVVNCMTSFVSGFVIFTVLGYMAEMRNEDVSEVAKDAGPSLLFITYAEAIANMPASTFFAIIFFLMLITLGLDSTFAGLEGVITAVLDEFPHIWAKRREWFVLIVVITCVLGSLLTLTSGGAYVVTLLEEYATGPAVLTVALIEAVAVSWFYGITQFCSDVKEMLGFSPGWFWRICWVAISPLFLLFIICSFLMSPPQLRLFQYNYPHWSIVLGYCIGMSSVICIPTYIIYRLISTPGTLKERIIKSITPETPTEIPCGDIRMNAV
Sequence of serotonin transporter (SERT) (P31652 whole entry): as above
Sequence of 168 GPCRs (Q16602 23-461): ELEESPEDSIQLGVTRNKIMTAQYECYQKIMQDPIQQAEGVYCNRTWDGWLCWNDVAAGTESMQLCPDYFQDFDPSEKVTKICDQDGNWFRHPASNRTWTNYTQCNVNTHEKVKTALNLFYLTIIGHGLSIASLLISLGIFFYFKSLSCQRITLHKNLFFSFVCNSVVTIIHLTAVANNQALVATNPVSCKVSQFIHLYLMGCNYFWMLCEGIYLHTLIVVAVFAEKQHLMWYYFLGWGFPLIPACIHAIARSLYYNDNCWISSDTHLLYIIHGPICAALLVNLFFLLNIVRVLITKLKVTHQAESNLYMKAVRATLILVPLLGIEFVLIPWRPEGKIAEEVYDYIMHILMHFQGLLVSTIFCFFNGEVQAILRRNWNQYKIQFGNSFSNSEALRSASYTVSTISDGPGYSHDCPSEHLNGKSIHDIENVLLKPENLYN
T1 sequence (P28335 33-458): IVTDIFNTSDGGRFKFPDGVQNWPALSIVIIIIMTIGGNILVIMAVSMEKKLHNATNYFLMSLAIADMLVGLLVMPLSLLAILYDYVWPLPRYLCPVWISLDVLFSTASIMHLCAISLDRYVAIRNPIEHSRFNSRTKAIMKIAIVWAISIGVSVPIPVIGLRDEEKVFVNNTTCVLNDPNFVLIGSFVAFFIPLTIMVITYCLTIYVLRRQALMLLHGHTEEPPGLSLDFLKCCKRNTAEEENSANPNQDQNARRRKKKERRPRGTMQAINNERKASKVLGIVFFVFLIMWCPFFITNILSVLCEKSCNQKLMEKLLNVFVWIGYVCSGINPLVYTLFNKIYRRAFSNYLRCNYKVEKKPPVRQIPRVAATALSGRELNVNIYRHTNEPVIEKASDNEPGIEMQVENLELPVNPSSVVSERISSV
Sequence of NET (Q63380 1-617): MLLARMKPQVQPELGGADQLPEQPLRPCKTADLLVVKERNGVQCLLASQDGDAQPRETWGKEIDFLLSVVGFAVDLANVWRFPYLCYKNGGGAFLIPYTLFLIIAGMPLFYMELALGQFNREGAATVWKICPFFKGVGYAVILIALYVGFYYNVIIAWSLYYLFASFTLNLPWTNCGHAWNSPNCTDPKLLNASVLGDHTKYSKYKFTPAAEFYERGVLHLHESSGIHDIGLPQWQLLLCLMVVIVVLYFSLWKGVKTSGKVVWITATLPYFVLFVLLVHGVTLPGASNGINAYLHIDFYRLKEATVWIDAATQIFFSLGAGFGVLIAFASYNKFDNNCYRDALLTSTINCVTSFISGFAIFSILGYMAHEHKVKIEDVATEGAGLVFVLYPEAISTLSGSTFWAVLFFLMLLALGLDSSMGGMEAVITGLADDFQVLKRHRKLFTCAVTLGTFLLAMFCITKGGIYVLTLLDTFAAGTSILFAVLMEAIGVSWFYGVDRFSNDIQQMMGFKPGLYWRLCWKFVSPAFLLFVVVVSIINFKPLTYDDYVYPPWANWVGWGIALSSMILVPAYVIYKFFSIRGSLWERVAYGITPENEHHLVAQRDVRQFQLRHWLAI

CNC(C)C(=O)c1ccc2c(c1)OCO2 (centres unmarked) [Methylone, 3,4-methylenedioxy-N-methylcathinone]
Adverse events noted ([1]; 21 PTSD patients): four adverse events were noted in three of the 21 patients | Patients much improved or very much improved per CGI-I ([1]; 21 PTSD patients): 81% | Patients reporting a durable effect ([1]; of 17 patients with durability information): 16 | Patients achieving CGI-I 1 (very much improved) ([1]; of 21 PTSD patients): 9 patients | Patients achieving CGI-I 2 (much improved) ([1]; of 21 PTSD patients): 8 patients | Patients achieving a CGI-I of 1 or 2 ([1]; of 21 PTSD patients): 17 patients | Patients achieving CGI-I 1 or 2 ([1]; patients with a single dose session (n=9)): 89% | Patients with initial improvement after the initial session ([1]; patients with multiple dosing sessions (n=12)): 83% | IC50 [2]: 130 nM | Total Degradation Products ([3]; 2 Week 25° C. 60% RH): <LOQ | Total Degradation Products ([3]; 2 Week 40° C. 75% RH): <LOQ | Total Degradation Products ([3]; 4 Week 25° C. 60% RH): <LOQ | Total Degradation Products ([3]; 8 Week 25° C. 60% RH): <LOQ | Total Degradation Products ([3]; t = 0, LOQ ≥ 0.1%): <LOQ | IC50 [4]: 430 nM | Type of interaction at the SERT [5]: competitive | Increase in neurite length vs. vehicle [6]: ~2 fold | Paw withdrawal thresholds [7]: significantly increased paw withdrawal thresholds | Agonist % activity [8]: no agonist or antagonist activity | % Activity [9]: −2.2%

— US12295937B2, “Psychoactive medicines and their use for treating psychiatric and neurological conditions and disorders” (Transcend Therapeutics, Inc., priority 2021, dated 2025)
